Test results published in BindingDB's records for doi:10.1016/s0960-894x(99)00004-9 (Smithkline Beecham Pharmaceuticals, 1999).

What was measured:
[1] = Inhibitory activity against cytomegalovirus (CMV) protease was determined using quenched fluorescence assay
[2] = Inhibitory activity against Varicella Zoster Virus (VZV) protease was determined using quenched fluorescence assay

Compound	IC50 [1] [µM]	IC50 [2] [µM]
Cc1csc2nc([C@H](C)NC(=O)/C=C/c3ccccc3Cl)oc(=O)c12 [(E)-3-(2-Chloro-phenyl)-N-[(S)-1-(5-methyl-4-oxo-4H-thieno[2,3-d][1,3]oxazin-2-yl)-ethyl]-acrylamide]	0.38	0.035
Cc1csc2nc([C@H](C)NC(=O)/C=C/c3sccc3Br)oc(=O)c12 [(E)-3-(3-Bromo-thiophen-2-yl)-N-[(S)-1-(5-methyl-4-oxo-4H-thieno[2,3-d][1,3]oxazin-2-yl)-ethyl]-acrylamide]	1.11	0.058
Cc1csc2nc([C@H](C)NC(=O)/C=C/c3ccc([N+](=O)[O-])cc3)oc(=O)c12 [(E)-N-[(S)-1-(5-Methyl-4-oxo-4H-thieno[2,3-d][1,3]oxazin-2-yl)-ethyl]-3-(4-nitro-phenyl)-acrylamide]	3.6	0.06
Cc1csc2nc([C@H](C)NC(=O)/C=C/c3cccc(Cl)c3)oc(=O)c12 [(E)-3-(3-Chloro-phenyl)-N-[(S)-1-(5-methyl-4-oxo-4H-thieno[2,3-d][1,3]oxazin-2-yl)-ethyl]-acrylamide]		0.042
Cc1csc2nc([C@H](C)NC(=O)/C=C/c3c(Cl)cccc3Cl)oc(=O)c12 [(E)-3-(2,6-Dichloro-phenyl)-N-[(S)-1-(5-methyl-4-oxo-4H-thieno[2,3-d][1,3]oxazin-2-yl)-ethyl]-acrylamide]	> 34	0.01
Cc1csc2nc([C@H](C)NC(=O)/C=C/c3cc(Br)cs3)oc(=O)c12 [(E)-3-(4-Bromo-thiophen-2-yl)-N-[(S)-1-(5-methyl-4-oxo-4H-thieno[2,3-d][1,3]oxazin-2-yl)-ethyl]-acrylamide]	1.12	0.033
COc1cc(/C=C/C(=O)N[C@@H](C)c2nc3scc(C)c3c(=O)o2)cc(OC)c1 [(E)-3-(3,5-Dimethoxy-phenyl)-N-[(S)-1-(5-methyl-4-oxo-4H-thieno[2,3-d][1,3]oxazin-2-yl)-ethyl]-acrylamide]	8.5	0.021
Cc1csc2nc([C@H](C)NC(=O)/C=C/c3cccn3C)oc(=O)c12 [(E)-N-[(S)-1-(5-Methyl-4-oxo-4H-thieno[2,3-d][1,3]oxazin-2-yl)-ethyl]-3-(1-methyl-1H-pyrrol-2-yl)-acrylamide]	0.22	0.029
Cc1ccsc1/C=C/C(=O)N[C@@H](C)c1nc2scc(C)c2c(=O)o1 [(E)-N-[(S)-1-(5-Methyl-4-oxo-4H-thieno[2,3-d][1,3]oxazin-2-yl)-ethyl]-3-(3-methyl-thiophen-2-yl)-acrylamide]	0.67	0.29
Cc1ccc(/C=C/C(=O)N[C@@H](C)c2nc3scc(C)c3c(=O)o2)s1 [(E)-N-[(S)-1-(5-Methyl-4-oxo-4H-thieno[2,3-d][1,3]oxazin-2-yl)-ethyl]-3-(5-methyl-thiophen-2-yl)-acrylamide]	0.58	0.033
Cc1csc2nc([C@H](C)NC(=O)/C=C/c3ccc(C=O)cc3)oc(=O)c12 [(E)-3-(4-Formyl-phenyl)-N-[(S)-1-(5-methyl-4-oxo-4H-thieno[2,3-d][1,3]oxazin-2-yl)-ethyl]-acrylamide]	2.4	0.094
Cc1csc2nc([C@H](C)NC(=O)/C=C/c3ccnc4ccccc34)oc(=O)c12 [(E)-N-[(S)-1-(5-Methyl-4-oxo-4H-thieno[2,3-d][1,3]oxazin-2-yl)-ethyl]-3-quinolin-4-yl-acrylamide]	1.1	0.019
COc1cccc(OC)c1/C=C/C(=O)N[C@@H](C)c1nc2scc(C)c2c(=O)o1 [(E)-3-(2,6-Dimethoxy-phenyl)-N-[(S)-1-(5-methyl-4-oxo-4H-thieno[2,3-d][1,3]oxazin-2-yl)-ethyl]-acrylamide]	21	0.18
Cc1csc2nc([C@H](C)NC(=O)/C=C/c3ccc(N(C)C)cc3)oc(=O)c12 [(E)-3-(4-Dimethylamino-phenyl)-N-[(S)-1-(5-methyl-4-oxo-4H-thieno[2,3-d][1,3]oxazin-2-yl)-ethyl]-acrylamide]	1.8	0.038
Cc1csc2nc([C@H](C)NC(=O)/C=C/c3ccccc3[N+](=O)[O-])oc(=O)c12 [(E)-N-[(S)-1-(5-Methyl-4-oxo-4H-thieno[2,3-d][1,3]oxazin-2-yl)-ethyl]-3-(2-nitro-phenyl)-acrylamide]	2.2	0.076
Cc1csc2nc([C@H](C)NC(=O)/C=C/c3ccccn3)oc(=O)c12 [(E)-N-[(S)-1-(5-Methyl-4-oxo-4H-thieno[2,3-d][1,3]oxazin-2-yl)-ethyl]-3-pyridin-2-yl-acrylamide]	1.24	0.17
Cc1csc2nc([C@H](C)NC(=O)/C=C/c3c(F)cccc3F)oc(=O)c12 [(E)-3-(2,6-Difluoro-phenyl)-N-[(S)-1-(5-methyl-4-oxo-4H-thieno[2,3-d][1,3]oxazin-2-yl)-ethyl]-acrylamide]	1.7	0.06

Compound	IC50 [1] [µM]	IC50 [2] [µM]
Cc1csc2nc([C@H](C)NC(=O)/C=C/c3ccccc3)oc(=O)c12 [(E)-N-[(S)-1-(5-Methyl-4-oxo-4H-thieno[2,3-d][1,3]oxazin-2-yl)-ethyl]-3-phenyl-acrylamide]	0.5	0.038
CCOc1ccccc1/C=C/C(=O)N[C@@H](C)c1nc2scc(C)c2c(=O)o1 [(E)-3-(2-Ethoxy-phenyl)-N-[(S)-1-(5-methyl-4-oxo-4H-thieno[2,3-d][1,3]oxazin-2-yl)-ethyl]-acrylamide]	0.51	0.015
Cc1cc(/C=C/C(=O)N[C@@H](C)c2nc3scc(C)c3c(=O)o2)c(C)s1 [(E)-3-(2,5-Dimethyl-thiophen-3-yl)-N-[(S)-1-(5-methyl-4-oxo-4H-thieno[2,3-d][1,3]oxazin-2-yl)-ethyl]-acrylamide]	0.23	0.007
Cc1csc2nc([C@H](C)NC(=O)/C=C/c3ccsc3Br)oc(=O)c12 [(E)-3-(2-Bromo-thiophen-3-yl)-N-[(S)-1-(5-methyl-4-oxo-4H-thieno[2,3-d][1,3]oxazin-2-yl)-ethyl]-acrylamide]	0.62	0.051
Cc1csc2nc([C@H](C)NC(=O)C=C(c3ccccc3)c3ccccc3)oc(=O)c12 [N-[(S)-1-(5-Methyl-4-oxo-4H-thieno[2,3-d][1,3]oxazin-2-yl)-ethyl]-3,3-diphenyl-acrylamide]	0.91	0.037
Cc1csc2nc([C@H](C)NC(=O)C=C(c3cccs3)c3cccs3)oc(=O)c12 [N-[(S)-1-(5-Methyl-4-oxo-4H-thieno[2,3-d][1,3]oxazin-2-yl)-ethyl]-3,3-di-thiophen-2-yl-acrylamide]	0.25	0.042
Cc1csc2nc([C@H](C)NC(=O)/C=C/c3ccccc3Br)oc(=O)c12 [(E)-3-(2-Bromo-phenyl)-N-[(S)-1-(5-methyl-4-oxo-4H-thieno[2,3-d][1,3]oxazin-2-yl)-ethyl]-acrylamide]	0.38	0.039
Cc1csc2nc([C@H](C)NC(=O)/C=C/c3ccc([N+](=O)[O-])s3)oc(=O)c12 [(E)-N-[(S)-1-(5-Methyl-4-oxo-4H-thieno[2,3-d][1,3]oxazin-2-yl)-ethyl]-3-(5-nitro-thiophen-2-yl)-acrylamide]	0.9	0.054
Cc1csc2nc([C@H](C)NC(=O)/C=C/c3ccsc3)oc(=O)c12 [(E)-N-[(S)-1-(5-Methyl-4-oxo-4H-thieno[2,3-d][1,3]oxazin-2-yl)-ethyl]-3-thiophen-3-yl-acrylamide]		0.089
Cc1csc2nc([C@H](C)NC(=O)/C=C/c3ccc(O)cc3Cl)oc(=O)c12 [(E)-3-(2-Chloro-4-hydroxy-phenyl)-N-[(S)-1-(5-methyl-4-oxo-4H-thieno[2,3-d][1,3]oxazin-2-yl)-ethyl]-acrylamide]		0.015
Cc1csc2nc([C@H](C)NC(=O)/C=C/c3c(F)cccc3Cl)oc(=O)c12 [(E)-3-(2-Chloro-6-fluoro-phenyl)-N-[(S)-1-(5-methyl-4-oxo-4H-thieno[2,3-d][1,3]oxazin-2-yl)-ethyl]-acrylamide]	2	0.036
Cc1csc2nc([C@H](C)NC(=O)/C=C/c3ccc(Br)s3)oc(=O)c12 [(E)-3-(5-Bromo-thiophen-2-yl)-N-[(S)-1-(5-methyl-4-oxo-4H-thieno[2,3-d][1,3]oxazin-2-yl)-ethyl]-acrylamide]	0.21	0.008
Cc1csc2nc([C@H](C)NC(=O)/C=C(\c3ccccc3)c3cccs3)oc(=O)c12 [(E)-N-[(S)-1-(5-Methyl-4-oxo-4H-thieno[2,3-d][1,3]oxazin-2-yl)-ethyl]-3-phenyl-3-thiophen-2-yl-acrylamide]	0.3	0.016
Cc1csc2nc([C@H](C)NC(=O)/C=C/c3ccc(Cl)s3)oc(=O)c12 [(E)-3-(5-Chloro-thiophen-2-yl)-N-[(S)-1-(5-methyl-4-oxo-4H-thieno[2,3-d][1,3]oxazin-2-yl)-ethyl]-acrylamide]	0.28	0.017
Cc1csc2nc([C@H](C)NC(=O)/C=C/c3ccc(Br)o3)oc(=O)c12 [(E)-3-(5-Bromo-furan-2-yl)-N-[(S)-1-(5-methyl-4-oxo-4H-thieno[2,3-d][1,3]oxazin-2-yl)-ethyl]-acrylamide]	0.18	0.041
Cc1ccccc1/C=C/C(=O)N[C@@H](C)c1nc2scc(C)c2c(=O)o1 [(E)-N-[(S)-1-(5-Methyl-4-oxo-4H-thieno[2,3-d][1,3]oxazin-2-yl)-ethyl]-3-o-tolyl-acrylamide]		0.036
